{"source": "patent US7635720B2", "about": "“Prostaglandin analog compositions to treat epithelial-related conditions” (Meta Cosmetics, LLC, priority 2007, dated 2009)", "key": {"eyelashes [1]": {"system": "eyelashes", "experiment": "Use for restoring eyelashes: transparent gel applied nightly at the skin-eyelash border, volunteers", "type": "in vivo, human", "excerpt": "In one embodiment, the composition of the present invention is a transparent gel formulated according to Table 2. The formulation comprises water, at least one prostaglandin analog according to the present invention (concentration about 0.001% to about 0.05% w/w of the composition); a thickener, optionally a hair stimulating agent; caffeine, and at least one penetrating agent and the pH adjusted to 7.2. The gel is applied as a fine line at the skin-eyelash border every night on clean dry eyes. The gel is aqueous enough to spread to the hair follicles but thick enough not to drip.\nIn another embodiment, the composition is a transparent gel formulated to comprise at least one of 16-phenoxy PGF2α cyclopropyl amide; 17-phenyl trinor PGF2α cyclopropyl amide; 16-phenoxy PGF2α cyclopropyl methyl amide; or 17-phenyl trinor PGF2α cyclopropyl methyl amide (concentration about 0.001% to about 0.05% w/w of the composition) plus the following ingredients (Table 3):\n(§1) Test formulations contained either 0.025% or 0.05% 16-phenoxy PGF2α cyclopropyl amide. The formulation containing 0.025% 16-phenoxy PGF2α cyclopropyl amide was used on the left side, and the formulation containing 0.05% 16-phenoxy PGF2α cyclopropyl amide was used on the right side. Test formulations were given randomly to volunteers without consideration of coloration of eyelashes, race, ethnicity or sex."}, "[2]": {"experiment": "Bovine cornea hydrolysis assay", "type": "in vitro ADME", "conditions": "for % Hydrolyzed after 12 hr (negative control): PBS pH 7.4 only, no cornea, 37° C.; for % Hydrolyzed after 12 hr, Avg: average of cornea samples 1-3; for % Hydrolyzed after 12 hr: one bovine cornea in 10 ml PBS pH 7.4, 37° C., 250 μg compound, individual cornea samples 1-3", "excerpt": "A bovine cornea hydrolysis test system (K. M. Maxey, et al., “The Hydrolysis of Bimatoprost in Corneal Tissue Generates a Potential Prostanoid FP Receptor Agonist,” Survey of Ophthalmology, 47 (Suppl 1):S34-40 (2002)) has been used to determine whether four test compounds of the present invention, namely 16-phenoxy PGF2α cyclopropyl amide; 17-phenyl trinor PGF2α cyclopropyl amide; 16-phenoxy PGF2α cyclopropyl methyl amide; and 17-phenyl trinor PGF2α cyclopropyl methyl amide, react similarly to bimatoprost in this test system.\nBovine corneas are excised within 1-2 hour of death. For each compound tested, one cornea (0.6 g) is placed into an 18 mm×150 mm glass test tube containing 10 ml of phosphate-buffered saline (“PBS”) at pH 7.4. The compound of interest (250 μg in about 120 μl ethanol) is added to each test tube containing a cornea and to a tube containing only 10 ml of PBS (no cornea), which served as a negative control. Test tubes are covered with parafilm and incubated at 37° C. with shaking.\nAfter the first time point, a 5 ml aliquot is removed from each test tube and transferred into another marked test tube. The remaining material continues to incubate at 37° C. until subsequent test time point(s) is/are reached. For each test tube, 1.0 ml of 5% KHSO4 is added to bring the pH down to about 3 and sufficient NaCl is added to saturate the solution; the solution then is extracted three times with 80% ethyl acetate-hexane. The solvent is evaporated under nitrogen, dissolved in 200 μl of 80% ethyl acetate-hexane, and the 200 μl sample then transferred to a 2 ml screw cap vial. Samples are stored at −20° C. until run on an HPLC column.\nAfter the second time point, the cornea is removed from each experimental test tube. For each test tube, 1.0 ml of 5% KHSO4 is added to bring the pH down to about 3 and sufficient NaCl added to saturate the solution; the solution then is extracted three times with 80% ethyl acetate-hexane. The solvent is evaporated under nitrogen, dissolved in 200 μl of 80% ethyl acetate-hexane, and the 200 μl sample then transferred to 2 ml screw cap vials. Samples are stored at −20° C. until they are run on an HPLC column.\nFor HPLC, samples are run on a Beckman Ultrasphere ODS analytical C18 HPLC column (5μ, 4.6 mm×25 cm) at 1 ml/min using either 60:40:0.1 or 70:30:0.1 methanol:water:acetic acid as solvent. Absorbance is monitored at 210 nm."}, "eyebrows": {"system": "eyebrows", "experiment": "Use for restoring eyebrows: transparent gel applied nightly at the browbone, volunteers", "type": "in vivo, human", "excerpt": "A composition prepared according to the present invention is formulated as a transparent gel as described in the two described embodiments of Example 2. The formulation comprises water, at least one prostaglandin analog according to the present invention (concentration about 0.001% to about 0.05% w/w of the composition); a thickener, optionally a hair stimulating agent; caffeine, and at least one penetrating agent and the pH adjusted to 7.2. The gel is applied by brush as a line at the browbone every night on clean, oil-free brows in the absence of makeup. The gel is sufficiently aqueous to spread to the hair follicles but thick enough not to drip.\nas §1"}, "eyelashes [3]": {"system": "eyelashes", "conditions": "background statement; cited from earlier work"}, "[4]": {"conditions": "0.025% formulation left, 0.05% right"}, "[5]": {"conditions": "gel 0.025% / 0.05% nightly, single subject"}}, "note": "Several values for one entry are separate records, joined by “and”; a condition that tells them apart may be missing. Equal values may be shown once. Entries after “also recorded” stand apart in the source; their conditions may differ."}
{"smiles": "O=C(CCC/C=C\\C[C@@H]1[C@@H](/C=C/[C@@H](O)COc2ccccc2)[C@H](O)C[C@@H]1O)NC1CC1", "note": "[16-phenoxy PGF2α cyclopropyl amide, 16-phenoxy tetranor PGF2α cyclopropyl amide]", "values": [{"measurement": "left side (0.025%) versus right side (0.05%), eyelashes", "setting": "eyelashes [1]; [4]", "value": "no significant difference; also recorded: Right side was faster to grow; also recorded: Subject thought right side was better; also recorded: Subject thought left side was better"}, {"measurement": "increase in eyelash length", "setting": "eyelashes [1]; gel 0.025% (left) / 0.05% (right) nightly, single subject, final result or time not given", "value": "about 55% and approximately 80% and approximately 45% and 50% and 45% and approximately 60% and 100% and 45-50%"}, {"measurement": "eyelash appearance (in words)", "setting": "eyelashes [1]; [5]", "value": "darker, fuller and showed an upward curving angle of growth; also recorded: much thicker, fuller, longer and curvier than before use; also recorded: Lashes grew so much that by week 4 the test was discontinued because eyelashes were too long; also recorded: darker, fuller, and longer; also recorded: thicker and darker and curled upwards; also recorded: much thicker after 2 weeks; also recorded: much darker, thicker; also recorded: darker, and curved upwards; also recorded: longer, thicker and darker; also recorded: bushy, very thick, dark; also recorded: eyelashes had grown to the point of clear visibility below lids; also recorded: darker, thicker and lashes curled up; also recorded: darker and more upturned; also recorded: Noticeable improvement after 4 weeks even without mascara"}, {"measurement": "time by which increase in eyelash length / growth was obvious", "setting": "eyelashes [1]; [5]", "value": "about 3 weeks and ≤ 3 weeks and ≤ 2 weeks"}, {"measurement": "time to some thickening of eyelashes", "setting": "eyelashes [1]; [5]", "value": "≤ 10", "unit": "days"}, {"measurement": "increase in eyelash length", "setting": "eyelashes [1]; gel 0.025% / 0.05% nightly, single subject, 3 weeks", "value": "40% and 30%"}, {"measurement": "increase in eyelash length", "setting": "eyelashes [1]; gel 0.025% / 0.05% nightly, single subject, 4 weeks", "value": "about 50% and 50% and approximately 60%"}, {"measurement": "increase in eyelash length", "setting": "eyelashes [1]; gel 0.025% / 0.05% nightly, single subject, 5 weeks", "value": "Approximately 60%; also recorded: about 100%; also recorded: approximately 45%"}, {"measurement": "increase in eyelash length", "setting": "eyelashes [1]; gel 0.025% / 0.05% nightly, single subject, 6 weeks", "value": "100% and ~45% and 50%"}, {"measurement": "increase in eyelash length", "setting": "eyelashes [1]; gel 0.025% / 0.05% nightly, single subject, after two months", "value": "approximately 55%"}, {"measurement": "increase in numbers of eyelashes", "setting": "eyelashes [1]; gel 0.025% / 0.05% nightly, single subject, final or peak result", "value": "60% and 30% and 50%"}, {"measurement": "increase in eyelash thickness", "setting": "eyelashes [1]; gel 0.025% / 0.05% nightly, single subject, final result", "value": "approximately doubled and approximately 60% and 100% and ~100%"}, {"measurement": "tolerability of the product", "setting": "eyelashes [1]; subjects with dry eye", "value": "tolerated the product well"}, {"measurement": "% Hydrolyzed after 12 hr (negative control)", "setting": "[2]", "value": 0, "unit": "%"}, {"measurement": "% Hydrolyzed after 12 hr, Avg", "setting": "[2]", "value": 1.78, "unit": "%"}, {"measurement": "% Hydrolyzed after 12 hr", "setting": "[2]", "value": "2.0% and 1.89% and 1.44%"}, {"measurement": "left side (0.025%) versus right side (0.05%), eyebrows", "setting": "eyebrows; [4]", "value": "no significant difference"}, {"measurement": "eyebrow hair result (in words)", "setting": "eyebrows; gel 0.025% (left) / 0.05% (right) nightly, single subject", "value": "noticeable increase in number of hairs and color after 2 weeks; also recorded: Hairs started to fill in"}]}
{"smiles": "O=C(CCC/C=C\\C[C@@H]1[C@@H](/C=C/[C@@H](O)COc2ccccc2)[C@H](O)C[C@@H]1O)NCC1CC1", "note": "[16-phenoxy tetranor PGF2α cyclopropyl methyl amide]", "values": [{"measurement": "% Hydrolyzed after 12 hr (negative control)", "setting": "[2]", "value": 0, "unit": "%"}, {"measurement": "% Hydrolyzed after 12 hr, Avg", "setting": "[2]", "value": 1.22, "unit": "%"}, {"measurement": "% Hydrolyzed after 12 hr", "setting": "[2]", "value": "1.28% and 1.18% and 1.2%"}]}
{"smiles": "O=C(CCC/C=C\\C[C@@H]1[C@@H](/C=C/[C@@H](O)CCc2ccccc2)[C@H](O)C[C@@H]1O)NCC1CC1", "note": "[17 phenyl trinor PGF2α cyclopropyl methyl amide]", "values": [{"measurement": "% Hydrolyzed after 12 hr (negative control)", "setting": "[2]", "value": 0, "unit": "%"}, {"measurement": "% Hydrolyzed after 12 hr, Avg", "setting": "[2]", "value": 0.91, "unit": "%"}, {"measurement": "% Hydrolyzed after 12 hr", "setting": "[2]", "value": "0.83% and 0.8% and 1.1%"}]}
{"smiles": "O=C(CCC/C=C\\C[C@@H]1[C@@H](/C=C/[C@@H](O)CCc2ccccc2)[C@H](O)C[C@@H]1O)NC1CC1", "note": "[17-phenyl trinor PGF2α cyclopropyl amide, 17 phenyl trinor PGF2α cyclopropylamide]", "values": [{"measurement": "% Hydrolyzed after 12 hr (negative control)", "setting": "[2]", "value": 0, "unit": "%"}, {"measurement": "% Hydrolyzed after 12 hr, Avg", "setting": "[2]", "value": 1.82, "unit": "%"}, {"measurement": "% Hydrolyzed after 12 hr", "setting": "[2]", "value": "1.31% and 2.0% and 2.15%"}]}
{"smiles": "CCNC(=O)CCC/C=C\\C[C@@H]1[C@@H](/C=C/[C@@H](O)CCc2ccccc2)[C@H](O)C[C@@H]1O", "note": "[Bimatoprost, cyclopentane N-ethyl heptenamide-5-cis-2-(3α-hydroxy-5-phenyl-1-trans-pentenyl)-3,4-dihydroxy, [1α, 2β, 3α, 5α]]", "values": [{"measurement": "effect on eyelash growth (in words)", "setting": "eyelashes [3]", "value": "effective to increase the growth of eyelashes"}, {"measurement": "incidence of hyperemia", "setting": "eyelashes [3]", "value": "highest incidence of hyperemia"}, {"measurement": "negative side effects", "setting": "eyelashes [3]", "value": "redness and discoloration along the periocular skin; eye irritation; and foreign body sensation"}]}
{"smiles": "CC(C)OC(=O)CCC/C=C\\C[C@@H]1[C@@H](CC[C@@H](O)CCc2ccccc2)[C@H](O)C[C@@H]1O", "note": "[Latanoprost]", "values": [{"measurement": "effect on eyelash growth (in words)", "setting": "eyelashes [3]", "value": "works poorly on eyelashes"}]}
{"smiles": "CC(C)OC(=O)CCC/C=C\\C[C@@H]1[C@@H](/C=C/[C@@H](O)COc2cccc(C(F)(F)F)c2)[C@H](O)C[C@@H]1O", "note": "[Travaprost, isopropyl (Z)-7-[(1R,2R,3R,5S)-3,5-dihydroxy-2-[(1E,3R)-3-hydroxy-4-[(α,α,α-trifluoro-m-tolyl)oxy]-1-butenyl]cyclopentyl]-5-heptenoate]", "values": [{"measurement": "effect on eyelash growth (in words)", "setting": "eyelashes [3]", "value": "does not work well for eyelash growth, taking longer than other like products"}]}
